Laboratory results published in ChEMBL document CHEMBL4417631, “Oral peptide inhibitors of interleukin-23 receptor and their use to treat inflammatory bowel diseases” (2017).
Where a SMILES comes first, the peptide text is derived from it. Bridges are numbered along the chain shown (N, C = ends). Roman numbers before positions name the chains, in order.

Target: T1, Interleukin-23 receptor (Homo sapiens, UniProt Q5VWK5)
T1 sequence (Q5VWK5 whole entry): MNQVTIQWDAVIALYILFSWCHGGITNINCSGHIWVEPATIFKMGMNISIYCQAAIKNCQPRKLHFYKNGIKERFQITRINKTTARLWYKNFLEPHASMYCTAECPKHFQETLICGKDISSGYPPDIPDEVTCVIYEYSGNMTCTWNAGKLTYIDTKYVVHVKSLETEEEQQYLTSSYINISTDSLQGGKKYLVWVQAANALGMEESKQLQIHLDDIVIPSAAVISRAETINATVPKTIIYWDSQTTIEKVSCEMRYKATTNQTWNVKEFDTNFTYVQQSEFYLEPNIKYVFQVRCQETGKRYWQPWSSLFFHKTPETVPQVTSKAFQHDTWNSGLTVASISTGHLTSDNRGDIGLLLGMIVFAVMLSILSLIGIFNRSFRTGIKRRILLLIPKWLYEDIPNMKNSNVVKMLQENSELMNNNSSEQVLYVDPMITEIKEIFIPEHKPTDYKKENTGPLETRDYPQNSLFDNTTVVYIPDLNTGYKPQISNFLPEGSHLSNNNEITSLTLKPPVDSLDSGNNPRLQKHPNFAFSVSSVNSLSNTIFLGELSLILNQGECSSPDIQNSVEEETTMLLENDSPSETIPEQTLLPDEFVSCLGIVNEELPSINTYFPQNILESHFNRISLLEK
Assay: Inhibition of interleukin-23 binding to human interleukin-23 receptor incubated for 2 hrs by competitive binding ELISA

SMILES | IC50 [nM]
CC(=O)N[C@@H](CCC(N)=O)C(=O)N[C@H](C(=O)N[C@@H](Cc1c[nH]c2ccccc12)C(=O)N[C@@H](CCC(N)=O)C(=O)N[C@@H](CS)C(=O)N[C@@H](Cc1ccc(O)cc1)C(=O)N[C@@H](Cc1c[nH]c2ccccc12)C(=O)N(C)[C@@H](CC(C)C)C(=O)N[C@@H](CCC(=O)O)C(=O)N[C@@H](CC(N)=O)C(=O)NCC(N)=O)[C@@H](C)O | > 6000
CSC[C@H](NC(=O)[C@H](CCC(N)=O)NC(=O)[C@H](Cc1c[nH]c2ccccc12)NC(=O)[C@@H](NC(=O)[C@H](CCCNC(=N)N)NC(=O)[C@H](C)NC(C)=O)[C@@H](C)O)C(=O)N[C@@H](Cc1ccc(O)cc1)C(=O)N[C@@H](Cc1c[nH]c2ccccc12)C(=O)N[C@@H](CCCNC(=N)N)C(=O)N[C@@H](CCCCN)C(=O)N[C@@H](Cc1ccccc1)C(=O)NCC(=O)NCCOCC(=O)N[C@H](CCCCN)C(N)=O | 7570
CC(=O)NCCCC[C@H](NC(=O)[C@](C)(CCCCN)NC(=O)[C@H](Cc1ccc2ccccc2c1)NC(=O)[C@H](Cc1ccc(Cl)c(Cl)c1)NC(=O)[C@@H](NC(=O)[C@H](CCC(N)=O)NC(=O)[C@H](Cc1c[nH]c2ccccc12)NC(=O)[C@@H](NC(=O)[C@H](CCC(N)=O)NC(=O)[C@@H](NC(C)=O)C(C)(C)S)[C@@H](C)O)C(C)(C)S)C(=O)N[C@@H](CC(N)=O)C(=O)NCC(N)=O | 100 to 1000
CC(=O)N[C@@H](CS)C(=O)N[C@@H](CCC(N)=O)C(=O)N[C@H](C(=O)N[C@@H](Cc1c[nH]c2ccccc12)C(=O)N[C@@H](CCC(=O)O)C(=O)N[C@@H](CS)C(=O)N[C@@H](Cc1ccc(O)cc1)C(=O)N[C@@H](Cc1c[nH]c2ccccc12)C(=O)N[C@@H](Cc1cnc[nH]1)C(=O)N[C@@H](CC(C)C)C(=O)N[C@@H](Cc1ccc(O)cc1)C(=O)NCC(N)=O)[C@@H](C)O (Ac-CQTWECYWHLYG-NH2) | < 500
CC(=O)N[C@@H](C)C(=O)N[C@H](C(=O)N[C@@H](CC(=O)O)C(=O)N[C@@H](Cc1c[nH]c2ccccc12)C(=O)N[C@H](C(=O)N[C@H](C(=O)N[C@@H](Cc1ccc(O)cc1)C(=O)N[C@@H](Cc1c[nH]c2ccccc12)C(=O)N[C@@H](CCCN)C(=O)N[C@@H](CN)C(=O)N[C@@H](Cc1ccccc1)C(=O)NCC(=O)NCCOCC(=O)N[C@H](CCCCN)C(N)=O)C(C)(C)S)C(C)C)C(C)(C)S | > 30000
C[C@@H](O)[C@H](NC(=O)[C@@H]1CCCN1C(=O)[C@@H](N)Cc1ccccc1)C(=O)N[C@@H](Cc1c[nH]c2ccccc12)C(=O)N[C@@H](CCC(=O)O)C(=O)N[C@@H](Cc1c[nH]c2ccccc12)C(=O)N[C@@H](Cc1ccc(O)cc1)C(=O)N[C@@H](Cc1c[nH]c2ccccc12)C(=O)N[C@@H](CSSC[C@H](NC(=O)[C@H](Cc1c[nH]c2ccccc12)NC(=O)[C@H](Cc1ccc(O)cc1)NC(=O)[C@H](Cc1c[nH]c2ccccc12)NC(=O)[C@H](CCC(=O)O)NC(=O)[C@H](Cc1c[nH]c2ccccc12)NC(=O)[C@@H](NC(=O)[C@@H]1CCCN1C(=O)[C@@H](N)Cc1ccccc1)[C@@H](C)O)C(=O)N[C@@H](CC(N)=O)C(=O)N[C@@H](CCCNC(=N)N)C(=O)N[C@@H](CC(=O)O)C(N)=O)C(=O)N[C@@H](CC(N)=O)C(=O)N[C@@H](CCCNC(=N)N)C(=O)N[C@@H](CC(=O)O)C(N)=O (I: H-FPTWEWYWCNRD-NH2 / II: H-FPTWEWYWCNRD-NH2; disulfide I:9-II:9) | 1000 to 10000
C[C@@H](O)[C@H](NC(=O)[C@@H](NC(=O)[C@@H](N)CS)[C@@H](C)O)C(=O)N[C@@H](Cc1c[nH]c2ccccc12)C(=O)N[C@@H](CCCCN)C(=O)N[C@@H](CS)C(=O)N[C@@H](Cc1ccc(O)cc1)C(=O)N[C@@H](Cc1c[nH]c2ccccc12)C(=O)N[C@@H](Cc1cnc[nH]1)C(=O)N[C@@H](CCC(N)=O)C(=O)N[C@@H](Cc1ccc(O)cc1)C(=O)NCC(N)=O (H-CTTWKCYWHQYG-NH2) | 500 to 1000
CC(=O)N[C@H](C(=O)N[C@@H](CCC(N)=O)C(=O)N[C@H](C(=O)N[C@@H](Cc1c[nH]c2ccccc12)C(=O)N[C@@H](CCC(N)=O)C(=O)N[C@H](C(=O)N[C@@H](Cc1ccc(C#N)cc1)C(=O)N[C@@H](Cc1ccc2ccccc2c1)C(=O)N[C@@](C)(CCCN)C(=O)N[C@@H](CCC(=O)O)C(=O)N[C@@H](CC(N)=O)C(=O)NCC(N)=O)C(C)(C)S)[C@@H](C)O)C(C)(C)S | 100 to 1000
N=C(N)NCCC[C@H](NC(=O)[C@H](Cc1c[nH]c2ccccc12)NC(=O)[C@H](Cc1ccc(O)cc1)NC(=O)[C@@H]1CSCCCC(=O)N[C@@H](CCC(N)=O)C(=O)N[C@@H](CC(=O)O)C(=O)N[C@@H](Cc2c[nH]c3ccccc23)C(=O)N[C@@H](CCC(N)=O)C(=O)N1)C(=O)N[C@@H](CCC(=O)O)C(=O)N[C@@H](CC(N)=O)C(=O)NCC(=O)NCCOCC(=O)N[C@H](CCCCN)C(N)=O | 6000
CC(=O)N[C@@H](CS)C(=O)N[C@@H](CCC(N)=O)C(=O)N[C@H](C(=O)N[C@@H](Cc1c[nH]c2ccccc12)C(=O)N[C@@H](CCC(N)=O)C(=O)N[C@@H](CS)C(=O)N[C@@H](Cc1ccc(O)cc1)C(=O)N[C@@H](Cc1c[nH]c2ccccc12)C(=O)N1CCC[C@@H]1C(=O)N[C@@H](CCC(=O)O)C(=O)N[C@@H](CC(N)=O)C(=O)NCC(N)=O)[C@@H](C)O | > 30000
CC(=O)N[C@@H](CS)C(=O)N[C@@H](C)C(=O)N[C@@H](CC(=O)O)C(=O)N[C@@H](Cc1c[nH]c2ccccc12)C(=O)N[C@H](C(=O)N[C@@H](CS)C(=O)N[C@@H](Cc1ccc(O)cc1)C(=O)N[C@@H](Cc1c[nH]c2ccccc12)C(=O)N[C@@H](Cc1cnc[nH]1)C(=O)N[C@H](C(=O)N[C@@H](Cc1ccccc1)C(=O)NCC(=O)N1CCC[C@H]1C(=O)N[C@H](CCCCN)C(=O)O)[C@@H](C)O)C(C)C | < 500
CC[C@H](C)[C@H](NC(=O)[C@H](Cc1cnc[nH]1)NC(=O)[C@H](Cc1c[nH]c2ccccc12)NC(=O)[C@H](Cc1ccc(O)cc1)NC(=O)[C@H](CS)NC(=O)[C@H](CCCCN)NC(=O)[C@H](Cc1c[nH]c2ccccc12)NC(=O)[C@H](CC(=O)O)NC(=O)[C@H](CCCCN)NC(=O)[C@@H](N)CS)C(=O)N[C@@H](Cc1ccc(O)cc1)C(=O)NCC(N)=O (H-CKDWKCYWHIYG-NH2) | > 1000
CC(=O)N[C@@H](C)C(=O)N[C@@H](CS)C(=O)N[C@@H](CC(=O)O)C(=O)N[C@@H](Cc1c[nH]c2ccccc12)C(=O)N[C@H](C(=O)N[C@H](C(=O)N[C@@H](Cc1ccc(O)cc1)C(=O)N[C@@H](Cc1c[nH]c2ccccc12)C(=O)N[C@@H](CCCNC(=N)N)C(=O)N[C@@H](CCCCN)C(=O)N[C@@H](Cc1ccccc1)C(=O)NCC(=O)NCCOCC(=O)N[C@H](CCCCN)C(N)=O)C(C)(C)S)C(C)C | 1000 to 10000
CC(C)[C@H](NC(=O)[C@H](Cc1c[nH]c2ccccc12)NC(=O)[C@H](CC(=O)O)NC(=O)[C@H](C)NC(=O)[C@@H](N)CS)C(=O)N[C@@H](CS)C(=O)N[C@@H](Cc1ccc(O)cc1)C(=O)N[C@@H](Cc1c[nH]c2ccccc12)C(=O)N[C@@H](Cc1cnc[nH]1)C(=O)N[C@H](C(=O)N[C@@H](Cc1ccccc1)C(=O)NCC(=O)N[C@@H](CCCCN)C(=O)O)[C@@H](C)O | > 1000
CC(C)[C@H](NC(=O)[C@H](Cc1c[nH]c2ccccc12)NC(=O)[C@H](CC(=O)O)NC(=O)[C@H](C)NC(=O)[C@@H](N)CS)C(=O)N[C@@H](CS)C(=O)N[C@@H](Cc1ccc(O)cc1)C(=O)N[C@@H](Cc1cccc2ccccc12)C(=O)N[C@@H](Cc1cnc[nH]1)C(=O)N(C)CC(=O)N[C@@H](Cc1ccccc1)C(=O)O | > 1000
CC(=O)N[C@@H](CS)C(=O)N[C@H](C(=O)N[C@@H](CC(=O)O)C(=O)N[C@@H](Cc1c[nH]c2ccccc12)C(=O)N[C@H](C(=O)N[C@@H](CS)C(=O)N[C@@H](Cc1ccc(O)cc1)C(=O)N[C@@H](Cc1c[nH]c2ccccc12)C(=O)N[C@@H](Cc1cnc[nH]1)C(=O)N[C@H](C(=O)N[C@@H](Cc1ccccc1)C(=O)NCC(N)=O)[C@@H](C)O)C(C)C)[C@@H](C)O | < 500
CC(C)[C@H](NC(=O)[C@H](Cc1c[nH]c2ccccc12)NC(=O)[C@H](CC(=O)O)NC(=O)[C@H](C)NC(=O)[C@H](CS)NC(=O)COCCN)C(=O)N[C@@H](CS)C(=O)N[C@@H](Cc1ccc(O)cc1)C(=O)N[C@@H](Cc1c[nH]c2ccccc12)C(=O)N[C@@H](Cc1cnc[nH]1)C(=O)N[C@H](C(=O)N[C@@H](Cc1ccccc1)C(=O)NCC(=O)O)[C@@H](C)O | > 1000
CC(C)[C@H](NC(=O)[C@H](Cc1ccc(-c2ccccc2)cc1)NC(=O)[C@H](CC(=O)O)NC(=O)[C@H](C)NC(=O)[C@@H](N)CS)C(=O)N[C@@H](CS)C(=O)N[C@@H](Cc1ccc(O)cc1)C(=O)N[C@@H](Cc1c[nH]c2ccccc12)C(=O)N[C@@H](Cc1cnc[nH]1)C(=O)N[C@H](C(=O)N[C@@H](Cc1ccccc1)C(=O)NCC(N)=O)[C@@H](C)O | > 1000
CC(=O)N[C@@H](CS)C(=O)N[C@@H](CCC(N)=O)C(=O)N[C@H](C(=O)N[C@@H](Cc1c[nH]c2ccccc12)C(=O)N[C@@H](CCC(N)=O)C(=O)N[C@@H](CS)C(=O)N[C@@H](Cc1ccc(O)cc1)C(=O)N[C@@H](Cc1c[nH]c2ccccc12)C(=O)N[C@@H](CCCNC(=N)N)C(=O)N[C@@H](CCC(=O)O)C(=O)N[C@@H](CC(N)=O)C(=O)NCC(=O)NCCOCC(=O)N[C@H](CCCNC(=N)N)C(N)=O)[C@@H](C)O | < 500
CC(=O)N[C@@H](CS)C(=O)N[C@@H](CCC(N)=O)C(=O)N[C@H](C(=O)N[C@@H](Cc1c[nH]c2ccccc12)C(=O)N[C@@H](CCC(N)=O)C(=O)N[C@@H](CS)C(=O)N[C@@H](Cc1ccc(O)cc1)C(=O)N[C@@H](Cc1c[nH]c2ccccc12)C(=O)N[C@@H](CCCNC(=N)N)C(=O)N[C@@H](CN)C(=O)N[C@@H](CC(N)=O)C(=O)NCC(=O)NCCOCC(=O)N[C@H](CCCCN)C(N)=O)[C@@H](C)O | < 500
